Experimental data taken from PubChem BioAssay AID1919004 (Molecular Pharmacology Branch, DTP, NCI, 2023).
“And” between values parts separate entries of the source, which are not always exact repeats. Equal entries are not always repeated.

System: 883617-216-R-J1-PDC complex spheroids, growth, % test/control
Assay: Anticancer human tumor 883617-216-R-J1-PDC patient-derived bladder carcinoma cell line growth inhibition [AhR]
Settings: for viability, T/C: stronger effect = lower value
From the text: Multicellular complex tumor spheroid response to aryl hydrocarbon receptor antagonists in combination with a variety of drugs and investigational agents in selected tumor cell lines
The current study was undertaken to assess response to aryl hydrocarbon receptor antagonists in combination with standard-of-care drugs and investigational agents in solid tumor complex spheroid models. Complex spheroids include a stromal component modeled by human endothelial cells (HUVEC) and fibroblasts modeled by human mesenchymal stem cells (MSCs). The concentration ranges selected for each drug and investigational agent were based upon clinically achievable concentrations if the clinical Cmax of the agent was known.
Compounds. The drugs and investigational agents: BAY 2416964 (NSC825713), GNF351 (NSC835774), CH-223191 (NSC835775), CPI-455 (NSC825282), aza-TdCyd (NSC777586), decitabine (NSC127716), belinostat (NSC758774), entinostat (NSC756642), pevonedistat (NSC761192), tazemetostat (NSC777109), talazoparib (NSC765396), olaparib (NSC753686), selinexor (NSC780203), nedisertib (M3814, NSC802822), bortezomib (NSC756655), venetoclax (NSC766270), doxorubicin (NSC123127), elimusertib (BAY189344, NSC800525), ceralasertib (AZD6738, NSC777638), TAK-243 (NSC785004), alisertib (NSC759677), etoposide (NSC141540), topotecan (NSC609699), eribulin (NSC707389), gemcitabine (NSC613327), carboplatin (NSC241240), cisplatin (NSC119875), and SN-38 (NSC673596) were obtained from the National Cancer Institute (NCI) Developmental Therapeutics Program Chemical Repository (32). The FDA-approved anticancer drug set is available from the Developmental Therapeutics Program at https://dtp.cancer.gov/organization/dscb/obtaining/available plates.htm. […] The stock solutions were prepared in dimethyl sulfoxide (DMSO, Sigma-Aldrich, St. Louis, MO, cat. D2650), except for the platinum compounds which were prepared in saline (Quality Biological, Gaithersburg, MD, cat. 114-055-101), at 800-fold the tested concentration and stored at -70 degrees C prior to their use. All drugs and investigational agents were tested over a range starting from a high concentration at or near the clinical Cmax and decreasing in half-log increments. If the clinical Cmax for an agent had not been determined, the highest concentration tested was 10 microM (Table 1).
Cell Culture. All cells were maintained in an incubator at 37 degrees C and 5% CO2 with 95% humidity. The PDC lines were cultured according to standard operating procedures established by the NCI PDMR (https://pdmr.cancer.gov). Briefly, all PDCs were thawed and cultured in Matrigel-coated flasks prepared with a working solution of 1X Ham's F-12 nutrient mix, without supplementation (Invitrogen, Waltham, MA, cat. 11765054), 100 U/mL penicillin-streptomycin (Invitrogen, cat. 15140122), and 2.5% Matrigel (Corning Inc., Corning, NY, cat. 354248) for the first three passages. All PDCs were cultured in complete DMEM/F-12 media containing advanced DMEM/F-12 (Invitrogen, cat. 12634028), 4.9% defined fetal bovine serum, heat inactivated (HyClone Laboratories Inc., Logan, UT, cat. SH30070.03HI), 389 ng/mL hydrocortisone (Sigma-Aldrich, cat. H4001), 9.7 ng/mL human EGF recombinant protein (Invitrogen, cat. PHG0313), 23.4 microg/mL adenine (Sigma-Aldrich, cat. A2786), 97.3 U/mL penicillin-streptomycin (Invitrogen, cat. 15140122), 1.9 mM L-glutamine (Invitrogen, cat. 25030081), and 9.7 microM Y-27632 dihydrochloride (Tocris Bioscience, Bristol, United Kingdom, cat. 1254). The PDCs were cultured in complete DMEM/F12 media without 10 microM Y-27632 dihydrochloride for at least two passages prior to the screen. The established cell lines NCI-H1341 and […] were cultured in DMEM/F-12, HEPES (Invitrogen, cat. 11330032), 5% defined fetal bovine serum (HyClone Laboratories Inc., cat. SH30070.03), ITS premix universal culture supplement [insulin (5 microg/mL), transferrin (5 microg/mL), and selenious acid (5 ng/mL)] […]

[1] = curve of first compound, second compound 0.1 µM
[2] = curve of first compound, second compound 0.316 µM
[3] = curve of first compound, second compound 1 µM
[4] = curve of first compound, second compound 3.16 µM
[5] = curve of first compound, second compound 10 µM
[6] = second compound 0.1 µM, first compound 0.0316 µM
[7] = second compound 0.1 µM, first compound 0.1 µM
[8] = second compound 0.1 µM, first compound 0.316 µM
[9] = second compound 0.1 µM, first compound 1 µM
[10] = second compound 0.316 µM, first compound 0.0316 µM
[11] = second compound 0.316 µM, first compound 0.1 µM
[12] = second compound 0.316 µM, first compound 0.316 µM
[13] = second compound 0.316 µM, first compound 1 µM
[14] = second compound 1 µM, first compound 0.0316 µM
[15] = second compound 1 µM, first compound 0.1 µM
[16] = second compound 1 µM, first compound 0.316 µM
[17] = second compound 1 µM, first compound 1 µM
[18] = second compound 3.16 µM, first compound 0.0316 µM
[19] = second compound 3.16 µM, first compound 0.1 µM
[20] = second compound 3.16 µM, first compound 0.316 µM
[21] = second compound 3.16 µM, first compound 1 µM
[22] = second compound 10 µM, first compound 0.0316 µM
[23] = second compound 10 µM, first compound 0.1 µM
[24] = second compound 10 µM, first compound 0.316 µM
[25] = second compound 10 µM, first compound 1 µM
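Note: exposure lasted 7 days after dosing on day 3 of spheroid growth.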

Work on `Nc1ncn(C2CC(O)C(CO)O2)c(=O)n1` (configuration not stated) + Cc1ccccc1N=Nc1ccc(NC(=O)c2ccnn2C)c(C)c1 yielded an IC50 [1] greater than 1000 nM, an IC50 [2] greater than 1000 nM and an IC50 [3] greater than 1000 nM. It also gave an IC50 [4] greater than 1000 nM, an IC50 [5] greater than 1000 nM and a viability, T/C (second compound 0.1 µM, first compound 0.00316 µM) of 89.3%. For the same compound, the viability, T/C (second compound 0.1 µM, first compound 0.01 µM) was 94.7%, the viability, T/C [6] was 83.6% and the viability, T/C [7] was 82.8%. The viability, T/C [8] was 75.5%, the viability, T/C [9] was 73.1% and the viability, T/C (second compound 0.316 µM, first compound 0.00316 µM) was 82.9%. For the same compound, the viability, T/C (second compound 0.316 µM, first compound 0.01 µM) was 83.5%, the viability, T/C [10] was 87.8% and the viability, T/C [11] was 80.1%. The viability, T/C [12] was 78.8%, the viability, T/C [13] was 76.6% and the viability, T/C (second compound 1 µM, first compound 0.00316 µM) was 79.9%. For the same compound, the viability, T/C (second compound 1 µM, first compound 0.01 µM) was 88.1%, the viability, T/C [14] was 101% and the viability, T/C [15] was 77.9%. It also gave a viability, T/C [16] of 67.6%, a viability, T/C [17] of 77.1% and a viability, T/C (second compound 3.16 µM, first compound 0.00316 µM) of 71.1%. It also gave a viability, T/C (second compound 3.16 µM, first compound 0.01 µM) of 84.2%, a viability, T/C [18] of 75.8% and a viability, T/C [19] of 72.8%. The viability, T/C [20] was 79.6%, the viability, T/C [21] was 81.2% and the viability, T/C (second compound 10 µM, first compound 0.00316 µM) was 84.7%. The viability, T/C (second compound 10 µM, first compound 0.01 µM) was 79.2%, the viability, T/C [22] was 74.3% and the viability, T/C [23] was 77.7%. The viability, T/C [24] was 74.2% and the viability, T/C [25] was 77.9%.

In the case of `Nc1ccn(C2OC(CO)C(O)C2(F)F)c(=O)n1` (configuration not stated) + Cc1cncc(-c2nc(NCCc3c[nH]c4ccccc34)c3ncn(C(C)C)c3n2)c1, the IC50 [1] is reported as less than 31.6 nM, the IC50 [2] is reported as less than 31.6 nM and the IC50 [3] is reported as less than 31.6 nM. The IC50 [4] was 70.8 nM, the IC50 [5] was less than 31.6 nM and the viability, T/C [6] was 32.6%. The viability, T/C [7] was 39.7%, the viability, T/C [8] was 43.1% and the viability, T/C [9] was 41.3%. For the same compound, the viability, T/C (second compound 0.1 µM, first compound 3.16 µM) was 44%, the viability, T/C (second compound 0.1 µM, first compound 10 µM) was 38.9% and the viability, T/C [10] was 34.5%. The viability, T/C [11] was 38.8%, the viability, T/C [12] was 44.9% and the viability, T/C [13] was 38.4%. It also gave a viability, T/C (second compound 0.316 µM, first compound 3.16 µM) of 39.5%, a viability, T/C (second compound 0.316 µM, first compound 10 µM) of 39.4% and a viability, T/C [14] of 46.1%. For the same compound, the viability, T/C [15] was 33.8%, the viability, T/C [16] was 39.3% and the viability, T/C [17] was 37.5%. For the same compound, the viability, T/C (second compound 1 µM, first compound 3.16 µM) was 41.9%, the viability, T/C (second compound 1 µM, first compound 10 µM) was 43.4% and the viability, T/C [18] was 71.3%. For the same compound, the viability, T/C [19] was 39.3%, the viability, T/C [20] was 40.6% and the viability, T/C [21] was 41.2%. For the same compound, the viability, T/C (second compound 3.16 µM, first compound 3.16 µM) was 43.5%, the viability, T/C (second compound 3.16 µM, first compound 10 µM) was 39.1% and the viability, T/C [22] was 33.1%. The viability, T/C [23] was 16.4%, the viability, T/C [24] was 13.5% and the viability, T/C [25] was 10.9%. The viability, T/C (second compound 10 µM, first compound 3.16 µM) was 15.8% and the viability, T/C (second compound 10 µM, first compound 10 µM) was 18%.

`CC(C)CC(NC(=O)C(Cc1ccccc1)NC(=O)c1cnccn1)B(O)O` (configuration not stated) + Cc1cncc(-c2nc(NCCc3c[nH]c4ccccc34)c3ncn(C(C)C)c3n2)c1 gave an IC50 [1] of 9.01 nM, an IC50 [2] of 8.45 nM and an IC50 [3] of 7.37 nM. It also gave an IC50 [4] of 6.62 nM, an IC50 [5] of 3.48 nM and a viability, T/C (second compound 0.1 µM, first compound 0.000949 µM) of 90.2%. For the same compound, the viability, T/C (second compound 0.1 µM, first compound 0.003 µM) was 93.5%, the viability, T/C (second compound 0.1 µM, first compound 0.00949 µM) was 48.1% and the viability, T/C (second compound 0.1 µM, first compound 0.03 µM) was 0.14%. The viability, T/C (second compound 0.1 µM, first compound 0.0949 µM) was 0.1%, the viability, T/C (second compound 0.1 µM, first compound 0.3 µM) was 0.23% and the viability, T/C (second compound 0.316 µM, first compound 0.000949 µM) was 97.4%. For the same compound, the viability, T/C (second compound 0.316 µM, first compound 0.003 µM) was 96.1%, the viability, T/C (second compound 0.316 µM, first compound 0.00949 µM) was 44.8% and the viability, T/C (second compound 0.316 µM, first compound 0.03 µM) was 0.11%. It also gave a viability, T/C (second compound 0.316 µM, first compound 0.0949 µM) of 0.06%, a viability, T/C (second compound 0.316 µM, first compound 0.3 µM) of 0.21% and a viability, T/C (second compound 1 µM, first compound 0.000949 µM) of 111%. For the same compound, the viability, T/C (second compound 1 µM, first compound 0.003 µM) was 93.9%, the viability, T/C (second compound 1 µM, first compound 0.00949 µM) was 38.7% and the viability, T/C (second compound 1 µM, first compound 0.03 µM) was 0.1%. It also gave a viability, T/C (second compound 1 µM, first compound 0.0949 µM) of 0.05%, a viability, T/C (second compound 1 µM, first compound 0.3 µM) of 0.21% and a viability, T/C (second compound 3.16 µM, first compound 0.000949 µM) of 105%. It also gave a viability, T/C (second compound 3.16 µM, first compound 0.003 µM) of 111%, a viability, T/C (second compound 3.16 µM, first compound 0.00949 µM) of 23.6% and a viability, T/C (second compound 3.16 µM, first compound 0.03 µM) of 0.14%. It also gave a viability, T/C (second compound 3.16 µM, first compound 0.0949 µM) of 0.84%, a viability, T/C (second compound 3.16 µM, first compound 0.3 µM) of 0.2% and a viability, T/C (second compound 10 µM, first compound 0.000949 µM) of 61.7%. It also gave a viability, T/C (second compound 10 µM, first compound 0.003 µM) of 57.3%, a viability, T/C (second compound 10 µM, first compound 0.00949 µM) of 0.3% and a viability, T/C (second compound 10 µM, first compound 0.03 µM) of 0.24%. It also gave a viability, T/C (second compound 10 µM, first compound 0.0949 µM) of 0.23% and a viability, T/C (second compound 10 µM, first compound 0.3 µM) of 0.62%.

In the case of `CC1COCCN1c1cc(C2(S(C)(=N)=O)CC2)nc(-c2ccnc3[nH]ccc23)n1` (configuration not stated), the viability, T/C (compound 0.0316 µM) is reported as 99.7% and 109% and 114%, the viability, T/C (compound 0.1 µM) is reported as 97.4% and 97.5% and 101% and the viability, T/C (compound 0.316 µM) is reported as 106% and 101% and 71.2%. The viability, T/C (compound 1 µM) was 88.5% and 99.6% and 63.6%, the viability, T/C (compound 3.16 µM) was 76% and 80.4% and 89.1% and the viability, T/C (compound 10 µM) was 48.9% and 56.1% and 102%. The IC50 (curve of compound) was 9600 nM and > 10000 nM.
